From ChEMBL document CHEMBL5728776, “Hydrocarbylsulfonyl-substituted pyridines and their use in the treatment of cancer” (2021)

How the values were obtained:
[1] = target: T1, Glutathione reductase, mitochondrial (Homo sapiens, UniProt P00390); assay: (§1) Inhibition of Recombinant TrxR1: Small molecule inhibition of recombinant thioredoxin reductase 1 (TrxR1) and gluthathione reductase (GR) was examined in 96-well plate format. 30 nM TrxR1 was incubated in the presence of 250 μM NADPH, 0.1 mg/ml BSA, and various concentrations of compound (1% DMSO final) in 50 mM Tris (pH 7.5) and 2 mM EDTA buffer for 15 minutes. Following the incubation period, 2 mM DTNB was added to each well and the change in O.D. at 412 nm was followed. Percent activity was determined using DMSO vehicle and no TrxR1 (blank) controls. 2 nM GR was incubated in the presence of 250 μM NADPH, 0.1 mg/ml BSA, and various concentrations of compounds (1% DMSO final) in 50 mM Tris (pH 7.5) and 2 mM EDTA buffer for 15 minutes. Following the incubation period, 1 mM GSSG was added to each well and the change in O.D. at 340 nm was followed. Percent activity was determined using DMSO vehicle and no GR (blank) controls.
T1 sequence (P00390 whole entry): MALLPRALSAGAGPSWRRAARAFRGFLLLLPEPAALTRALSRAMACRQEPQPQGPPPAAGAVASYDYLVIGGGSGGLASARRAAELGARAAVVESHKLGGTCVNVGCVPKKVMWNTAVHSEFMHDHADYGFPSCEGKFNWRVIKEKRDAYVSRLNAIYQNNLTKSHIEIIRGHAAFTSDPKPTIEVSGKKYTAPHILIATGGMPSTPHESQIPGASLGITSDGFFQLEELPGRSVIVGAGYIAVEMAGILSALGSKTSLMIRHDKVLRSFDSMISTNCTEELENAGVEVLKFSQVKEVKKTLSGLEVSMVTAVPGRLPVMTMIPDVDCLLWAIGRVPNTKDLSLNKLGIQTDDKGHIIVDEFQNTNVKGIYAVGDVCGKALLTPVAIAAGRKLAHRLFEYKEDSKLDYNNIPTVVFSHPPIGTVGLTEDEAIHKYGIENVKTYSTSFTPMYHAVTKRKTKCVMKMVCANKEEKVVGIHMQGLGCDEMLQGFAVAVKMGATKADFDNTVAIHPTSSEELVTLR

[2] = target: T2, Thioredoxin reductase 1, cytoplasmic (Homo sapiens, UniProt Q16881); assay: as §1
T2 sequence (Q16881 whole entry): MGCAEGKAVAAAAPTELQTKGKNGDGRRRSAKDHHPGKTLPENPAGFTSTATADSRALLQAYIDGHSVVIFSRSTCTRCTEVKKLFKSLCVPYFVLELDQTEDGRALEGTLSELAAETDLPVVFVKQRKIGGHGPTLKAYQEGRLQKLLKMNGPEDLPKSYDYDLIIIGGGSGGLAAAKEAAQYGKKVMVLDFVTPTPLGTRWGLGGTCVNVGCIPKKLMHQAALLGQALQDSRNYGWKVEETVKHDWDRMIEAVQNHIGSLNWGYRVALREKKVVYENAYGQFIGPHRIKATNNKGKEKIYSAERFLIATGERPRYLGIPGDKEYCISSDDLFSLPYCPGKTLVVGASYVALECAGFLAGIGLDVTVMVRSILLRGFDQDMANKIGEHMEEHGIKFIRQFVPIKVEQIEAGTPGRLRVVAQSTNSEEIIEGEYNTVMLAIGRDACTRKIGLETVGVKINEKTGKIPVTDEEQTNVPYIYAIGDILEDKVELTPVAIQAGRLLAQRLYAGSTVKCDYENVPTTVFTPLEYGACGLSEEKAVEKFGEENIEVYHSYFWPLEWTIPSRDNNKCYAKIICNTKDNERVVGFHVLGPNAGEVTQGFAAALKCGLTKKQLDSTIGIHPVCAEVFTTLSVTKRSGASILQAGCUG

- IC50 [1]: > 100000 nM
- IC50 [2]: 276 nM
SMILES: CN(C)c1ccc([N+](=O)[O-])c(S(=O)(=O)Cc2ccccc2)n1
